Results on five molecules are retold here after patent US11041000B2, “Peptide inhibitors of interleukin-23 receptor and their use to treat inflammatory diseases” (priority 2019, dated 2021).

Data set [1] addresses IL-23R-expressing DB cells (Homo sapiens, UniProt Q5VWK5). The data set can be described thus: DB cells IL23R pSTAT3 cell assay (pStat3HTRF). Format: cell-based. As to conditions: DB cells stimulated with IL-23 0.5 nM, 30 minutes, phospho-STAT3 in cell lysates; read-out: pStat3 HTRF. The source says: Human ELISA indicates the IL23-IL23R competitive binding assay described below, Rat ELISA indicates the rat IL-23R competitive binding ELISA assay described below, and pStat3HTRF indicates the DB cells IL-23R pSTAT3 cell assay described below. The peptides depicted in Table E1 are cyclized via a disulfide bridge formed between two Pen residues in these peptides. The peptides depicted in Table E2 are cyclized via a thioether bond between the indicated amino acid residues. Table E2 provides an illustrative structure depicting thioether cyclization, which is indicated in the table by the term “cyclo,” with the cyclic region bracketed immediately following the term “cyclo.” For certain peptides, the residue Abu is present where indicated, whereas in other embodiments, e.g., those related to the non-cyclized form, the Abu may be referred to as a hSer(Cl) or homoSer residue. The petpides depicted in Table E3 are cyclized via a disulfide bridge formed between two Pen residues or a thioether bond between Abu and Cys.
IL-23 plays a central role in supporting and maintaining Th17 differentiation in vivo. This process is thought to be mediated primarily through the Signal Transducer and Activator of Transcription 3 (STAT3), with phosphorylation of STAT3 (to yield pSTAT3) leading to upregulation of RORC and pro-inflammatory IL-17. This cell assay examines the levels of pSTAT3 in IL-23R-expressing DB cells when stimulated with IL-23 in the presence of test compounds. Serial dilutions of test peptides and IL-23 (Humanzyme #HZ-1261) at a final concentration of 0.5 nM, were added to each well in a 96 well tissue culture plate (Corning #CLS3894). DB cells (ATCC #CRL-2289), cultured in RPMI-1640 medium (Thermo Scientific #11875093) supplemented with 10% FBS, were added at 5×10E5 cells/well and incubated for 30 minutes at 37° C. in a 5% CO2 humidified incubator. Changes in phospho-STAT3 levels in the cell lysates were detected using the Cisbio HTRF pSTAT3 (Tyr705) Cellular Assay Kit (Cisbio #62AT3PEH), according to manufacturer's Two Plate Assay protocol.
On the technique in general: TR-FRET usually uses a lanthanide donor and a delayed reading to cut background.

Data set [2] in a line: Stability in simulated intestinal fluid (SIF). Format: in vitro ADME. To be noted: simulated intestinal fluid with pancreatin, pH 6.8, 37° C., matrix is 100 fold dilution of standard SIF concentration; for half-life at 20 μM: read-out: SIF t½ (converted).
Data set [3] is described as follows: Stability in human fecal homogenate. Format: in vitro ADME. To be noted: 20% fecal homogenate (supernatant), pH 6.8, 20% human fecal homogenate, anaerobic, 37° C., read-out: t½: Human Feces anaerobic (converted). As to the method: (§1) Centrifuged the homogenate at 2800×g for 15 min. The supernatant is taken out and used for incubations. […] The final test compound concentration was 20 μM.

Data set [4] in a line: Stability in cynomolgus monkey fecal homogenate. Format: in vitro ADME. To be noted: 20% fecal homogenate (supernatant), anaerobic, pH 6.8, 20% cynomolgus monkey fecal homogenate, 37° C., read-out: t½: Monkey Feces anaerobic (converted). As to the method: as §1
Data set [5] is described as follows: Stability in rat plasma. Format: in vitro ADME. To be noted: both sexes, SD rat plasma, EDTA, 37° C., read-out: t½: Rat Plasma EDTA (converted).
Method: Peptides of interest (20 μM) were incubated with pre-warmed rat plasma (SD rat, mixed gender pooled, EDTA, filtered through 0.22 μm, BioreclamationIVT) at 37° C. […] Quenched samples were stored at 4° C. until the end of the experiment and centrifuged at 4,000 rpm for 10 minutes. The supernatant were diluted 1:1 with deionized water and analyzed using LC-MS. Percentage remaining at each time point was calculated based on the peak area ratio (analyte over internal standard) relative to the initial level at time zero. Half-lives were calculated by fitting to a first-order exponential decay equation using GraphPad.

Bridge positions count the residues as written; N and C are the ends. Square brackets hold non-standard residues; d marks the D form. Peptide text beside a SMILES is read from it. Trp(7-OMe) = COc1cccc2c(C[C@H](N)C(=O)O)c[nH]c12; His(π-Bom) = N[C@@H](Cc1cncn1COCc1ccccc1)C(=O)O; Trp(7-Me) = Cc1cccc2c(C[C@H](N)C(=O)O)c[nH]c12; 2Nal = N[C@@H](Cc1ccc2ccccc2c1)C(=O)O; AEF = NCCOc1ccc(C[C@H](N)C(=O)O)cc1; Cit = NC(=O)NCCC[C@H](N)C(=O)O; Pen = CC(C)(S)[C@H](N)C(=O)O; αMeK = C[C@](N)(CCCCN)C(=O)O; Aib = CC(C)(N)C(=O)O; βAla = NCCC(=O)O

IL-23R-expressing DB cells, sequence (Q5VWK5 24-629 limits assumed): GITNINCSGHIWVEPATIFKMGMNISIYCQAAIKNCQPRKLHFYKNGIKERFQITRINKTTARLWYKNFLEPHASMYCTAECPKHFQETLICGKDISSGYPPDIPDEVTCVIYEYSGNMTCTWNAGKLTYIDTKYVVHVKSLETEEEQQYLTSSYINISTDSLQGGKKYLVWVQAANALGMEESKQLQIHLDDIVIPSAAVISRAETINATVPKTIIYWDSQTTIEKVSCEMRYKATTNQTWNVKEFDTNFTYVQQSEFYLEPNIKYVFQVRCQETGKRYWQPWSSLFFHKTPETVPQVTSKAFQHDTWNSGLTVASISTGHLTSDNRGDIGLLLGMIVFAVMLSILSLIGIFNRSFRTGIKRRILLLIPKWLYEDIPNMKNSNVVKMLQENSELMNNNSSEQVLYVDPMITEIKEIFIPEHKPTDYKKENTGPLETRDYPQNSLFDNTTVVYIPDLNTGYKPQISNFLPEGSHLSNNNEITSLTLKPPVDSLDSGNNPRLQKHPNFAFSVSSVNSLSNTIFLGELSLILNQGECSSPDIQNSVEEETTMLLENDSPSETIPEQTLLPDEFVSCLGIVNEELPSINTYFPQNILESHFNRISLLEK

For `CC(=O)NCCCC[C@H](NC(=O)[C@](C)(CCCCN)NC(=O)[C@H](Cc1ccc2ccccc2c1)NC(=O)[C@H](Cc1ccc(OCCN)cc1)NC(=O)[C@H]1NC(=O)[C@H](CCC(N)=O)NC(=O)[C@H](Cc2c[nH]c3c(C)cccc23)NC(=O)[C@H]([C@@H](C)O)NC(=O)C(C)(C)NC(=O)[C@@H](NC(C)=O)C(C)(C)SSC1(C)C)C(=O)N[C@@H](CC(N)=O)C(=O)NCCC(N)=O` [compound 240] (Ac-[Pen][Aib]T[Trp(7-Me)]Q[Pen][AEF][2Nal][αMeK]K(Ac)N[βAla]-NH2; disulfide 1-6), the IC50 in data set [1] worked out at 17.7 nM. For the same molecule, the half-life at 20 μM in data set [2] was 7 h; in data set [3], 4 h; in data set [4] (cynomolgus monkey), 3 h; in data set [5], 8 h.

As to `CC(=O)NCCCC[C@@H]1NC(=O)[C@H](Cc2c[nH]c3c(C)cccc23)NC(=O)[C@H]([C@@H](C)O)NC(=O)[C@H](CC(N)=O)NC(=O)[C@@H](NC(C)=O)C(C)(C)SSC(C)(C)[C@@H](C(=O)N[C@@H](Cc2ccc(OCCN)cc2)C(=O)N[C@@H](Cc2ccc3ccccc3c2)C(=O)N[C@@](C)(CCCCN)C(=O)N[C@@H](CCCCNC(C)=O)C(=O)N[C@@H](CC(N)=O)C(=O)N[C@H](Cc2ccccc2)C(N)=O)NC1=O` [compound 258], the IC50 in data set [1] worked out at 0.92 nM. In addition, the half-life at 20 μM in data set [2] is 14 h; in data set [3], more than 24 h; in data set [4] (cynomolgus monkey), more than 24 h; in data set [5], more than 24 h.

With `CC(=O)N[C@@H]1C(=O)N[C@@H](CC(N)=O)C(=O)N[C@@H]([C@@H](C)O)C(=O)N[C@@H](Cc2c[nH]c3c(C)cccc23)C(=O)N[C@@H](CCCNC(N)=O)C(=O)N[C@H](C(=O)N[C@@H](Cc2ccc(OCCN)cc2)C(=O)N[C@@H](Cc2ccc3ccccc3c2)C(=O)N[C@@](C)(CCCCN)C(=O)N[C@@H](CCCNC(N)=O)C(=O)NCCC(=O)NCCC(N)=O)C(C)(C)SSC1(C)C` [compound 281] (Ac-[Pen]NT[Trp(7-Me)][Cit][Pen][AEF][2Nal][αMeK][Cit][βAla][βAla]-NH2; disulfide 1-6), the IC50 in data set [1] came out at 17.7 nM. Besides, the half-life at 20 μM in data set [2] is 14 h; in data set [3], more than 24 h; in data set [4] (cynomolgus monkey), more than 24 h; in data set [5], more than 24 h.

With `CC(=O)NCCCC[C@@H]1NC(=O)[C@H](Cc2c[nH]c3c(C)cccc23)NC(=O)[C@H]([C@@H](C)O)NC(=O)[C@H](CC(N)=O)NC(=O)[C@@H](NC(C)=O)C(C)(C)SSC(C)(C)[C@@H](C(=O)N[C@@H](Cc2cncn2COCc2ccccc2)C(=O)N[C@@H](Cc2ccc3ccccc3c2)C(=O)N[C@@](C)(CCCCN)C(=O)N[C@@H](CCCCNC(C)=O)C(=O)N[C@@H](CC(N)=O)C(=O)N[C@H](CC(C)C)C(N)=O)NC1=O` [compound 291] (Ac-[Pen]NT[Trp(7-Me)]K(Ac)[Pen][His(π-Bom)][2Nal][αMeK]K(Ac)N[dL]-NH2; disulfide 1-6), the IC50 in data set [1] was more than 1000 nM. For the same molecule, the half-life at 20 μM in data set [3], in data set [4] (cynomolgus monkey) and in data set [5] was more than 24 h in each case.

On to `COc1cccc2c(C[C@@H]3NC(=O)[C@H]([C@@H](C)O)NC(=O)[C@H](CC(N)=O)NC(=O)[C@@H](NC(C)=O)C(C)(C)SSC(C)(C)[C@@H](C(=O)N[C@@H](Cc4ccc(OCCN)cc4)C(=O)N[C@@H](Cc4ccc5ccccc5c4)C(=O)N[C@@](C)(CCCCN)C(=O)N[C@@H](CCCCNC(C)=O)C(=O)N[C@@H](CC(N)=O)C(=O)N[C@H](CCCCN)C(N)=O)NC(=O)[C@H](CCCNC(N)=O)NC3=O)c[nH]c12` [compound 300] (Ac-[Pen]NT[Trp(7-OMe)][Cit][Pen][AEF][2Nal][αMeK]K(Ac)N[dK]-NH2; disulfide 1-6), for which the IC50 in data set [1] is more than 1000 nM. The “SIF t½” value in data set [2] (20 μM) is 24 h. Further, the half-life at 20 μM in data set [3], in data set [4] and in data set [5] was more than 24 h throughout.
